Experiments:
[1] = tested on: maternal HIV+ sera (antibodies); experiment: RIA / ELISA binding of maternal HIV+ sera to gp120 and gp41 peptides (Example 3); design: species or system human
In short: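 Peptides were coated at 10 μg/ml in carbonate buffer pH 9.6 and blocked with 1% BSA. Sera at 1:50 and 1:500 were incubated overnight at 4°C and detected with ¹²⁵I anti-human IgG (RIA) or HRP/TMB at OD450 (ELISA). Specific binding was taken as peptide minus no-peptide wells, scored as a ratio to normal human serum.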

[2] = tested on: maternal serum samples (antibodies); experiment: ELISA peptide-binding of maternal sera, expanded peptide collection (Example 5); design: species or system human; details: Example 5
Excerpt: The gp120 and gp41 peptides used in this experiment include peptides 60 [SEQ ID NO:9], 93 [SEQ ID NO:10], 94 [SEQ ID NO:1], 95 [SEQ ID NO:11], 96 [SEQ ID NO:12], 97 [SEQ ID NO:13], 59 [SEQ ID NO:14], 106 [SEQ ID NO:15], 107 [SEQ ID NO:[…]], 1029/33 [SEQ ID NO:2], p18p [SEQ ID NO:17], B138 [SEQ ID NO:3], 466 [SEQ ID NO:4], 497 [SEQ ID NO:18], 117 [SEQ ID NO:19], F560 [SEQ ID NO:20], 35 [SEQ ID NO:5], 120 [SEQ ID NO:21], 121 [SEQ ID NO:22], 123 [SEQ ID NO:23], 36 [SEQ ID NO:24], 40 [SEQ ID NO:25], 41 [SEQ ID NO:26], 649 [SEQ ID NO:6], 53 [SEQ ID NO:7], 55 [SEQ ID NO:27], 128 [SEQ ID NO:28], 129 [SEQ ID NO:29], 132 [SEQ ID NO:30], 57 [SEQ ID NO:8], and 1103/55 [SEQ ID NO:31] from Table 2. These peptides were synthesized based on the same HIV IIIB isolate as were the peptides of Table 2. Alternative designations for these peptides are provided in brackets.
Each of the peptides was at least 85% pure, making them suitable for ELISA analyses. The average length of these peptides was 18 amino acid residues, which allows for a certain degree of local flexibility and conformational folding, thus facilitating detection of antibody species with reactivities to shaped structures.
The maternal serum samples were obtained from the Mothers/Infants Cohort Study described in Example 1. For the ELISA peptide-binding analyses performed essentially as described in Example 3, maternal serum samples were diluted to 1:50 or 1:500 with blocking buffer (1% bovine serum albumin in phosphate-buffered saline containing 0.05% Tween 20). Binding was measured using 10 μg/mL peptide per well and was considered positive if the experimental/control OD450nm ratio was ≥2. Normal (HIV seronegative) human sera were used as controls.

[3] = tested on: maternal sera (antibodies); experiment: ELISA peptide-binding of maternal sera (Example 6); design: species or system human
In short: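 Third-trimester maternal sera, from HIV-1 transmitting and non-transmitting mothers, were tested by ELISA against ~16-residue peptides spanning HIV-1 external and transmembrane glycoproteins. Each serum was run with at least 40 peptides, and values are the percentage of sera binding each peptide.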

HIV-1 = details: antisera (animals); cited from earlier work

CTKAKRRVVQREKA [Peptide 497]
Number of maternal sera binding to peptide ([1]; 20 maternal sera): Sixteen
Percentage of sera samples demonstrating binding to peptide, non-transmitter ([1]; Non-transmitter group, n = 13): 71%
Binding of maternal HIV+ serum to peptide (sera/NHS ratio) ([1]; Serum No. 1, Non-Transmission Group): - (specific OD450 or cpm of sera sample binding to peptide divided by the specific OD450 or cpm of NHS sample binding to peptide, which value is less than 2)
Binding of maternal HIV+ serum to peptide (sera/NHS ratio) ([1]; Serum No. 2, Non-Transmission Group): ++ (which value is greater than 3)
Binding of maternal HIV+ serum to peptide (sera/NHS ratio) ([1]; Serum No. 3, Non-Transmission Group): ++ (which value is greater than 3)
Binding of maternal HIV+ serum to peptide (sera/NHS ratio) ([1]; Serum No. 4, Transmission Group): ++ (which value is greater than 3)
Binding of maternal HIV+ serum to peptide (sera/NHS ratio) ([1]; Serum No. 5, Transmission Group): + (which value is between 2 to 3)
Binding of maternal HIV+ serum to peptide (sera/NHS ratio) ([1]; Serum No. 6, Non-Transmission Group): + (which value is between 2 to 3)
Binding of maternal HIV+ serum to peptide (sera/NHS ratio) ([1]; Serum No. 7, Non-Transmission Group): - (specific OD450 or cpm of sera sample binding to peptide divided by the specific OD450 or cpm of NHS sample binding to peptide, which value is less than 2)
Binding of maternal HIV+ serum to peptide (sera/NHS ratio) ([1]; Serum No. 8, Non-Transmission Group): ++ (which value is greater than 3)
Binding of maternal HIV+ serum to peptide (sera/NHS ratio) ([1]; Serum No. 9, Non-Transmission Group): ++ (which value is greater than 3)
Binding of maternal HIV+ serum to peptide (sera/NHS ratio) ([1]; Serum No. 10, Transmission Group): + (which value is between 2 to 3)
Binding of maternal HIV+ serum to peptide (sera/NHS ratio) ([1]; Serum No. 11, Non-Transmission Group): ++ (which value is greater than 3)
Binding of maternal HIV+ serum to peptide (sera/NHS ratio) ([1]; Serum No. 12, Non-Transmission Group): - (specific OD450 or cpm of sera sample binding to peptide divided by the specific OD450 or cpm of NHS sample binding to peptide, which value is less than 2)
Binding of maternal HIV+ serum to peptide (sera/NHS ratio) ([1]; Serum No. 13, Transmission Group): - (specific OD450 or cpm of sera sample binding to peptide divided by the specific OD450 or cpm of NHS sample binding to peptide, which value is less than 2)
Binding of maternal HIV+ serum to peptide (sera/NHS ratio) ([1]; Serum No. 14, Transmission Group): - (specific OD450 or cpm of sera sample binding to peptide divided by the specific OD450 or cpm of NHS sample binding to peptide, which value is less than 2)
Binding of maternal HIV+ serum to peptide (sera/NHS ratio) ([1]; Serum No. 15, Transmission Group): ++ (which value is greater than 3)
Binding of maternal HIV+ serum to peptide (sera/NHS ratio) ([1]; Serum No. 16, Non-Transmission Group): ++ (which value is greater than 3)
Binding of maternal HIV+ serum to peptide (sera/NHS ratio) ([1]; Serum No. 17, Non-Transmission Group): ++ (which value is greater than 3)
Binding of maternal HIV+ serum to peptide (sera/NHS ratio) ([1]; Serum No. 18, Non-Transmission Group): + (which value is between 2 to 3)
Binding of maternal HIV+ serum to peptide (sera/NHS ratio) ([1]; Serum No. 19, Transmission Group): + (which value is between 2 to 3)
Binding of maternal HIV+ serum to peptide (sera/NHS ratio) ([1]; Serum No. 20, Non-Transmission Group): + (which value is between 2 to 3)
Percentage of sera samples demonstrating binding to peptide, transmitter ([1]; Transmitter / transmission group, n = 7): Seventy-seven
Percent of the maternal serum samples that bound to the peptide ([1]; all 20 samples): 80%
Binding / reactivity of maternal sera to peptide (in words) [2]: High reactivity but no difference between the two groups
Number of Non-Transmitters which bound to peptide ([3]; Non-Transmitters, N = 12): 0
Percent of Non-Transmitters which bound to peptide ([3]; Non-Transmitters, N = 12): 0%
Number of Transmitters which bound to peptide ([3]; Transmitters, N = 4): 0
Percent of Transmitters which bound to peptide ([3]; Transmitters, N = 4): 0%
Neutralizing activity of antisera generated to the peptide (HIV-1): do not demonstrate neutralizing activity
